The source of these data is ChEMBL document CHEMBL1201862, “PubChem BioAssay data set” (2004).

Structures are written as SMILES.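 Five concentrations, 48 hours, 96-well plates. GI50 is the concentration that inhibits growth by half.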 The source made the active and inactive calls. Rule as the data show it: active = GI50 up to about 1.1 µM and inactive = higher.

Common to all, as to experiment: NCI tumour cell line growth inhibition, 48 h
The subject of experiment [1] is CAKI-1.
In experiment [2] the test system is EKVX.
In experiment [3] the test system is UACC-257.
Experiment [4] relates to OVCAR-8.
Experiment [5] has as its system IGROV-1.
In experiment [6] the test system is MCF7.
For experiment [7], the system named is M14.
The subject of experiment [8] is 786-0.
For experiment [9], the system named is BT-549.
Experiment [10] has as its system PC-3.
Experiment [11] has as its system KM12.
In experiment [12] the test system is NCI-H226.
The subject of experiment [13] is HT-29.
Experiment [14] deals with NCI-H23.
The test system of experiment [15] is CCRF-CEM.
Experiment [16] deals with SNB-75.
Experiment [17] deals with UACC-62.
Experiment [18] deals with SK-MEL-2.
In experiment [19] the test system is TK-10.

For the molecule `CC(C)c1cc(=O)[nH]c2cc(N)ccc12`, the GI50 in experiment [1], in experiment [2], in [3], in [4], in experiment [5] and in experiment [6] was > 100 µM (inactive) each time. For the same molecule, the GI50 in experiment [7], in experiment [8], in experiment [9], in experiment [10], in experiment [11] and in experiment [12] was > 100 µM (inactive) throughout. Also, the GI50 is > 100 µM (inactive) in experiment [13]; > 100 µM (inactive) in experiment [14]; > 100 µM (inactive) in experiment [15]; 86.9 µM (inactive) in experiment [16]; 93.8 µM (inactive) in [17]; > 100 µM (inactive) in [18].
As for `CCOC(=O)c1ccc(C(=O)/C(C#N)=C2\CCCN2)n1C`, the GI50 in experiment [1] is > 100 µM (inactive); in [2] it was > 100 µM (inactive); in experiment [4] it was > 100 µM (inactive); in experiment [5], > 100 µM (inactive); in experiment [6], 40.4 µM (inactive); in [7], > 100 µM (inactive). The GI50 in experiment [8] was > 100 µM (inactive); in experiment [9], 78.9 µM (inactive); in [10] it was > 100 µM (inactive); in experiment [11] it was > 100 µM (inactive); in [12], 79.1 µM (inactive); in experiment [13], 79.4 µM (inactive). For the same molecule, the GI50 in experiment [14] is 97.5 µM (inactive); in experiment [15] it was > 100 µM (inactive); in experiment [16], 24.7 µM (inactive); in experiment [17], > 100 µM (inactive); in experiment [18], > 100 µM (inactive).
For `Nc1c(C(=O)O)nnc2ccc(Cl)cc12`, the GI50 in experiment [1], in experiment [2], in [3], in experiment [4], in experiment [5] and in experiment [19] was > 100 µM (inactive) each time. Also, the GI50 in experiment [6], in experiment [7], in [8], in experiment [9], in experiment [10] and in experiment [11] was > 100 µM (inactive) each time. Further, the GI50 in experiment [12] was 41.8 µM (inactive); in experiment [13] it was > 100 µM (inactive); in [14] it was > 100 µM (inactive); in experiment [15], > 100 µM (inactive); in experiment [16], > 100 µM (inactive); in experiment [17] it was > 100 µM (inactive). Further, the GI50 in experiment [18] is > 100 µM (inactive).
Consider `Cc1c2ccnc(C(=O)NCCN(C)C)c2cc2c3cc(O)ccc3n(C)c12`, for which the GI50 in experiment [1] was < 0.01 µM (active); in experiment [2], 0.957 µM (active); in [3], 1.53 µM (inactive); in experiment [4], 0.1 µM (active); in experiment [5] it was 0.277 µM (active); in [19] it was 2 µM (inactive). The GI50 was 0.082 µM (active) in [6]; 0.215 µM (active) in experiment [7]; 0.0542 µM (active) in experiment [8]; 2.06 µM (inactive) in [9]; 0.115 µM (active) in experiment [10]; 0.678 µM (active) in [11]. For the same molecule, the GI50 in [12] was 0.177 µM (active); in experiment [13], 0.479 µM (active); in [14], 0.125 µM (active); in experiment [15] it was < 0.0145 µM (active); in experiment [16], 0.33 µM (active); in experiment [17] it was 0.15 µM (active). Moreover, the GI50 in [18] is 0.499 µM (active).
For `O=C(O)c1ccc(NNc2cc(=O)[nH]c(=O)[nH]2)cc1`, the GI50 in experiment [1] is > 10 µM (inactive); in experiment [2], > 100 µM (inactive); in experiment [3], > 100 µM (inactive); in [4], > 100 µM (inactive); in [5], > 100 µM (inactive); in experiment [19], > 100 µM (inactive). Moreover, the GI50 in [6] was > 100 µM (inactive); in experiment [7], > 100 µM (inactive); in experiment [8], > 100 µM (inactive); in experiment [9], > 100 µM (inactive); in experiment [10] it was 24.4 µM (inactive); in [11] it was > 100 µM (inactive). For the same molecule, the GI50 in experiment [12] was > 100 µM (inactive); in experiment [13] it was > 100 µM (inactive); in experiment [14] it was > 100 µM (inactive); in experiment [15], > 100 µM (inactive); in experiment [16], 96.8 µM (inactive); in [17] it was > 100 µM (inactive). In addition, the GI50 in [18] was > 100 µM (inactive).
For `CCOC(=O)c1[nH]cc(C)c1-c1ccc2c(-c3ccccc3)nc3ccccc3n12`, the GI50 in [1] is 5.89 µM (inactive); in [2], 3.82 µM (inactive); in [3], 5.3 µM (inactive); in [4], 4.25 µM (inactive); in [5], 3.66 µM (inactive); in experiment [19], 3.21 µM (inactive). Also, the GI50 in [6] is 2.1 µM (inactive); in experiment [7] it was 5.55 µM (inactive); in [8], 3.56 µM (inactive); in experiment [9], 5.13 µM (inactive); in experiment [10], 3.01 µM (inactive); in experiment [11], 3.45 µM (inactive). Besides, the GI50 is 5.22 µM (inactive) in experiment [12]; 2.54 µM (inactive) in experiment [13]; 5.05 µM (inactive) in experiment [14]; 2.68 µM (inactive) in [15]; 1.85 µM (inactive) in [16]; 2.73 µM (inactive) in experiment [17]. In experiment [18], the GI50 was 4.29 µM (inactive).
Regarding `CCOC(=O)c1c(-c2ccccc2)nc2c(OC)nccn12`, the GI50 is > 100 µM (inactive) in [1]; > 100 µM (inactive) in experiment [2]; > 100 µM (inactive) in [3]; > 100 µM (inactive) in experiment [4]; > 100 µM (inactive) in experiment [5]; 60.5 µM (inactive) in experiment [19]. Moreover, the GI50 in experiment [6], in experiment [7], in [8], in [9], in [10] and in experiment [11] was > 100 µM (inactive) in each case. Besides, the GI50 in experiment [12], in experiment [13], in experiment [14], in [15], in experiment [16] and in experiment [17] was > 100 µM (inactive) throughout. The GI50 in experiment [18] was > 100 µM (inactive).
Consider `COc1cc2nc(-c3cccs3)nc(N3C(c4ccc(O)cc4)=NNC(=O)c4ccccc43)c2cc1OC`, for which the GI50 is 22.2 µM (inactive) in [1]; 3.9 µM (inactive) in experiment [2]; 28.4 µM (inactive) in experiment [3]; 36.1 µM (inactive) in experiment [4]; 32.7 µM (inactive) in experiment [5]; 30.5 µM (inactive) in experiment [19]. Also, the GI50 in [6] was 36.7 µM (inactive); in experiment [7], 29.5 µM (inactive); in experiment [8] it was 52.8 µM (inactive); in [9], 21 µM (inactive); in [10] it was 25.6 µM (inactive); in experiment [11] it was 32.7 µM (inactive). In addition, the GI50 is 23.3 µM (inactive) in experiment [12]; 23.1 µM (inactive) in experiment [13]; 27.5 µM (inactive) in [14]; 4.99 µM (inactive) in experiment [15]; 24 µM (inactive) in experiment [16]; 20.5 µM (inactive) in [17]. Moreover, the GI50 in experiment [18] is 26.9 µM (inactive).
Regarding `CNC(=O)N(C)C(=O)c1ccccc1C(=O)N(C)C(=O)NC`, the GI50 in experiment [1], in [2], in [3], in [4], in experiment [5] and in experiment [19] was > 10 µM (inactive) throughout. Besides, the GI50 in experiment [6], in experiment [7], in experiment [8], in experiment [9], in experiment [10] and in experiment [11] was > 10 µM (inactive) each time. Besides, the GI50 in [12], in [13], in experiment [14], in experiment [15], in experiment [16] and in experiment [17] was > 10 µM (inactive) each time. The GI50 in [18] is > 10 µM (inactive).
Take `O=C(CCc1cc(O)cc(O)c1)NCCc1cc(O)cc(OCc2ccccc2)c1`: the GI50 in [1] was > 100 µM (inactive); in [2] it was 57.3 µM (inactive); in experiment [3] it was 82.4 µM (inactive); in [4], 34.3 µM (inactive); in experiment [5], 59.3 µM (inactive); in experiment [19], > 100 µM (inactive). Moreover, the GI50 in experiment [6] was 32.6 µM (inactive); in experiment [7], 35.8 µM (inactive); in [8] it was 64.9 µM (inactive); in experiment [9], 29.6 µM (inactive); in [10], 37.8 µM (inactive); in experiment [11], 34 µM (inactive). Also, the GI50 in experiment [12] was 62.7 µM (inactive); in experiment [13], 29 µM (inactive); in experiment [14], 23.4 µM (inactive); in experiment [15] it was > 10 µM (inactive); in [16] it was 27.2 µM (inactive); in [17], 32.1 µM (inactive). The GI50 in experiment [18] is 44.8 µM (inactive).
As to `N#C/C(=C\c1ccccc1)c1nc(-c2cc3ccccc3oc2=O)cs1`, the GI50 in [1] is > 100 µM (inactive); in experiment [2], 71.3 µM (inactive); in experiment [3] it was > 100 µM (inactive); in [4] it was > 100 µM (inactive); in [5], 48.5 µM (inactive); in experiment [19] it was 45.2 µM (inactive). The GI50 was > 100 µM (inactive) in [6]; > 100 µM (inactive) in experiment [7]; 53.5 µM (inactive) in experiment [8]; 27.3 µM (inactive) in experiment [9]; > 100 µM (inactive) in [10]; 75.3 µM (inactive) in experiment [11]. For the same molecule, the GI50 was > 100 µM (inactive) in experiment [12]; > 100 µM (inactive) in experiment [13]; > 100 µM (inactive) in experiment [15]; 39.3 µM (inactive) in experiment [16]; 43.1 µM (inactive) in [17]; > 100 µM (inactive) in experiment [18].
